In patent publication US8367086B1, “Process and product for inhibiting or preventing bacterial infections” (S.S. Steiner, Inc., priority 2004, dated 2013):
Positions of bridges follow the written chain, without caps; N, C: chain ends. Non-standard residues stand in square brackets, D forms with d. Residues, ends and D or L forms follow the SMILES beside them. *: point of attachment. Ileψ(thiazoline)Cys = CC[C@H](C)[C@H](N)C1=N[C@H](C(=O)*)CS1; dOrn = NCCC[C@@H](N)C(=O)O

Tested on: Staphlococcus saprophyticus
Experiment: paper disc diffusion susceptibility (Kirby-Bauer) method
Assay type: cell-based
Details: for change of zone of inhibition when lupulone was added: Experiment 1, 0.2 μg/ml β-resin versus antibiotic alone; for zone of inhibition, Experiment 1 Control / zone of inhibition, Experiment 2 Control: antibiotic disc alone; for zone of inhibition, Experiment 1 Control / zone of inhibition, Experiment 2 Control / zone of inhibition, Experiment 1 0.2 μg/ml β-resin / zone of inhibition, Experiment 2 0.2 μg/ml β-resin: 24 hours; for zone of inhibition, Experiment 1 0.2 μg/ml β-resin / zone of inhibition, Experiment 2 0.2 μg/ml β-resin: antibiotic disc with 0.2 μg/ml β-resin in the agar
Excerpt: The first test method to be applied was the paper disc diffusion susceptibility method. In this method a filter paper disc impregnated with a chemical is placed on agar, and the chemical will diffuse from the disc into the agar. If an organism is placed on the agar, it will not grow in the area around the disc if it is susceptible to the chemical. This area of no growth around the disc is known as the zone of inhibition. This disc diffusion method for antibiotic susceptibility is known as the Kirby-Bauer method. In testing the effectiveness of various antibiotics, all factors, e.g., the agar utilized, the depth of the agar, the amount of organism used, and incubation conditions, are maintained constant for the various organisms and antibiotics being tested. […] The size of the zone of inhibition of the particular antimicrobial substance may also be influenced by the diffusion capability of that substance.
In performing the disc diffusion method tests, a bacterial suspension having an inoculum density of approximately 1×10^8 CFU/ml (colony forming units) was added to 10 ml trypticase soy agar at 46° C. It was mixed thoroughly by vortexing and then poured into a plastic Petri dish. After hardening of the agar, filter paper discs (φ7 mm.) made from Whatman filter paper No. 1 that had been impregnated by the manufacturer, Becton Dickinson, Inc., with the suitable antibiotic, were placed on the agar. In this series of tests the ability of each antibiotic per se to control the growth of the bacteria was measured.
Another series of agar containing Petri dishes was then prepared using the same bacteria and density thereof as had been prepared for the prior test series. However, here hop compounds were also present in the agar. The hop extract, either lupulone, humulone or xanthohumol, was dissolved in ethanol. While certain of the hop components are only slightly soluble in water, they are very soluble in ethanol. An ethanol control was prepared in the same way.
The size of the inhibition zones was measured to the nearest mm.
The concentration of β-acid and xanthohumol is set forth in μg/ml. The zone of inhibition was measured in centimeters. […]

Compound | change of zone of inhibition when lupulone was added | zone of inhibition, Experiment 1 Control [mm] | zone of inhibition, Experiment 2 Control [mm] | zone of inhibition, Experiment 1 0.2 μg/ml β-resin [mm] | zone of inhibition, Experiment 2 0.2 μg/ml β-resin [mm]
CC[C@H](C)[C@H](N)C1=N[C@H](C(=O)N[C@@H](CC(C)C)C(=O)N[C@H](CCC(=O)O)C(=O)N[C@H](C(=O)N[C@H]2CCCCNC(=O)[C@H](CC(N)=O)NC(=O)[C@@H](CC(=O)O)NC(=O)[C@H](Cc3cnc[nH]3)NC(=O)[C@@H](Cc3ccccc3)NC(=O)[C@H]([C@@H](C)CC)NC(=O)[C@@H](CCCN)NC2=O)[C@@H](C)CC)CS1 [BACITRACIN, bacitracin] ({Ileψ(thiazoline)Cys}-L[dE]IK[dOrn]I[dF]H[dD]N; lactam 4-C) | remained constant | 0 | 0 | 0 | 0
O=C(N[C@H](CO)[C@H](O)c1ccc([N+](=O)[O-])cc1)C(Cl)Cl [CHLORAMPHENICOL, chloramphenicol] | decline | 29 | 25 | 27 | 25
CC[C@H]1OC(=O)[C@H](C)[C@@H](O[C@H]2C[C@@](C)(OC)[C@@H](O)[C@H](C)O2)[C@H](C)[C@@H](O[C@@H]2O[C@H](C)C[C@H](N(C)C)[C@H]2O)[C@](C)(O)C[C@@H](C)C(=O)[C@H](C)[C@@H](O)[C@]1(C)O [ERYTHROMYCIN, erythromycin] | remained constant | 23 | 23 | 25 | 23
[H]/N=C(/N)N[C@H]1[C@H](O)[C@@H](O)[C@H](O[C@@H]2O[C@@H](C)[C@](O)(C=O)[C@H]2O[C@@H]2O[C@@H](CO)[C@H](O)[C@@H](O)[C@@H]2NC)[C@@H](N/C(N)=N\[H])[C@@H]1O [STREPTOMYCIN, streptomycin] | remained constant | 15 | 15 | 15 | 14
